From patent publication US20190119282A1, “IMIDAZOPYRIDAZINES USEFUL AS INHIBITORS OF THE PAR-2 SIGNALING PATHWAY” (Vertex Pharmaceuticals Incorporated, priority 2013, published 2019) come the findings set out here.

Each structure is given as a SMILES string.

In experiment [1] the test system is Thrombin-stimulated Ca2+ response in HT-29 cells. The experiment is described as follows: Ca FLIPR TETRA assay, ANTAGONIST mode, stimulation with 1 U/mL Thrombin. The settings on record: Homo sapiens; HT-29 cells, antagonist mode, stimulation with 1 U/mL Thrombin. Format: cell-based, human. Summed up:
(§1)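 Antagonist-mode assay: dye-loaded HT-29 cells, compound 30 min at r.t., then stimulated with final 8 μM SLIGKV, 3.1 U/mL trypsin, 1 U/mL thrombin or 0.6 μM UTP; calcium fluorescence read.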

The target in experiment [2] is T1, PAR2 (HT-29 cells, trypsin activation) (Homo sapiens, UniProt P55085).
T1 construct: host or cells: HT-29 cells
T1 sequence (P55085 26-397): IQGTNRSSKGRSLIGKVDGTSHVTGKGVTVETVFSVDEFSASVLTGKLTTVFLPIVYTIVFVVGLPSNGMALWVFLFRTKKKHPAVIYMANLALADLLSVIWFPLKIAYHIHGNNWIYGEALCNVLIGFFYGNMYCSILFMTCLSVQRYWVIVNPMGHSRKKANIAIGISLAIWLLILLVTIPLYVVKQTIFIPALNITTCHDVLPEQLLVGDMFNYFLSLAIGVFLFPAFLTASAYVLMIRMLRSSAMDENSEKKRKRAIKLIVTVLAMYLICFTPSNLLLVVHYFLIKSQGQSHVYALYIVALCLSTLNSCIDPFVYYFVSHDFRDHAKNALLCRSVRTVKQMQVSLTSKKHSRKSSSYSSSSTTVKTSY
In words: Ca FLIPR TETRA assay, ANTAGONIST mode, stimulation with 3.1 U/mL trypsin. Type of experiment: cell-based. To be noted: HT-29 cells, antagonist mode, stimulation with 3.1 U/mL trypsin. The gist of the method: as §1

The target in experiment [3] is T2, PAR2 (HT-29 cells, SLIGKV activation) (Homo sapiens, UniProt P55085).
T2 construct: host or cells: HT-29 cells
T2 sequence (P55085 26-397): T1 sequence (P55085 26-397)
The experiment is described as follows: Ca FLIPR TETRA assay, ANTAGONIST mode, stimulation with 8 μM SLIGKV. The settings on record: HT-29 cells, antagonist mode, stimulation with 8 μM SLIGKV. Type of experiment: cell-based. Summed up:
as §1

The test system of experiment [4] is UTP-stimulated Ca2+ response in HT-29 cells. In words: Ca FLIPR TETRA assay, ANTAGONIST mode, stimulation with 0.6 μM UTP. Format: cell-based, human. To be noted: Homo sapiens; HT-29 cells, antagonist mode, stimulation with 0.6 μM UTP. The gist of the method: as §1

By IC50 is commonly meant the concentration needed to halve the response being measured. For `CC(C)c1cc(-c2ccc(OC(F)(F)F)cc2)nn2cc(C(=O)N3CCN(C(=O)C(C)(C)O)CC3(C)C)nc12` [Compound I-219], the 50% inhibitory concentration (IC50) in experiment [1] was over 1000 nM; in experiment [2] it was 360 nM; in experiment [3], 143 nM; in experiment [4], over 1000 nM.
On to `CC(C)c1cc(-c2ccc(C#N)cc2)nn2cc(C(=O)N3CCN(C(=O)C(C)(C)O)CC3(C)C)nc12` [Compound I-220], for which the IC50 in experiment [1] is over 1000 nM; in experiment [2], 880 nM; in experiment [3], 760 nM; in experiment [4] it was over 1000 nM.
Consider `CC(C)c1cc(-c2ccc(F)c(F)c2)nn2cc(C(=O)N3CCN(C(=O)C(C)(C)O)CC3(C)C)nc12` [Compound I-221], for which the IC50 was over 1000 nM in experiment [1], 39.5 nM in experiment [2], 23.3 nM in experiment [3] and over 1000 nM in experiment [4].
In the case of `CC(C)c1cc(-c2ccc(F)c(C(F)(F)F)c2)nn2cc(C(=O)N3CCN(C(=O)C(C)(C)O)CC3(C)C)nc12` [Compound I-222], the half-maximal inhibitory concentration (IC50) is over 1000 nM in experiment [1], 205 nM in experiment [2], 108 nM in experiment [3] and over 1000 nM in experiment [4].
For the molecule `Cc1cc(-c2cc(C(C)C)c3nc(C(=O)N4CCN(C(=O)C(C)(C)O)CC4(C)C)cn3n2)ccc1F` [Compound I-223], the IC50 in experiment [1] was over 1000 nM; in experiment [2] it was 26.7 nM; in experiment [3], 16.3 nM; in experiment [4], over 1000 nM.
Turning to `CC(C)c1cc(-c2cc(F)cc(F)c2)nn2cc(C(=O)N3CCN(C(=O)C(C)(C)O)CC3(C)C)nc12` [Compound I-224], the IC50 in experiment [1] is over 1000 nM; in experiment [2], 163 nM; in experiment [3], 110 nM; in experiment [4] it was over 1000 nM.
Consider `CC(C)(O)CN1CCN(C(=O)c2cn3nc(-c4ccc(F)cc4)cc(C(C)(C)C)c3n2)C(C)(C)C1=O` [Compound I-225], for which the IC50 in experiment [1] was determined as 230 nM; in experiment [2] it was 2.5 nM; in experiment [3] it was 1.3 nM; in experiment [4] it was 230 nM.
Consider `C[C@H]1CN(C(=O)c2cn3nc(-c4ccc(F)cc4)cc(C(C)(C)C)c3n2)C(C)(C)C(=O)N1` [Compound I-226], for which the IC50 in experiment [1] was over 1000 nM; in experiment [2], 760 nM; in experiment [3], 525 nM; in experiment [4], over 1000 nM.
Consider `CC(C)(C)c1cc(-c2ccc(F)cc2)nn2cc(C(=O)N3CCN(C(=O)c4ncc[nH]4)CC3(C)C)nc12` [Compound I-229], for which the IC50 in experiment [1] was over 1000 nM; in experiment [2] it was 0.8 nM; in experiment [3], 0.5 nM; in experiment [4], over 1000 nM.
Consider `CC(C)(C)c1cc(-c2ccc(F)cc2)nn2cc(C(=O)N3CCN(C(=O)c4cncnc4)CC3(C)C)nc12` [Compound I-230], for which the IC50 in experiment [1] is 730 nM; in experiment [2] it was 5.5 nM; in experiment [3], 2.4 nM; in experiment [4], over 1000 nM.
`CC(C)(C)c1cc(-c2ccc(F)cc2)nn2cc(C(=O)N3CCN(C(=O)c4ccncn4)CC3(C)C)nc12` [Compound I-231]: the IC50 in experiment [1] is over 1000 nM; in experiment [2], 1.6 nM; in experiment [3], 1.1 nM; in experiment [4] it was over 1000 nM.
Consider `CC(CO)N1CCN(C(=O)c2cn3nc(-c4ccc(F)cc4)cc(C(C)(C)C)c3n2)C(C)(C)C1=O` (stereo not shown) [Compound I-233], for which the IC50 in experiment [1] was over 1000 nM; in experiment [2], 6.8 nM; in experiment [3], 5 nM; in experiment [4], over 1000 nM.
Consider `CC(C)(C)c1cc(-c2ccc(F)cc2)nn2cc(C(=O)N3CCN(C#N)C(=O)C3(C)C)nc12` [Compound I-234], for which the IC50 is over 1000 nM in experiment [1], 1.3 nM in experiment [2], 0.9 nM in experiment [3] and over 1000 nM in experiment [4].
As to `CC(C)(C)c1cc(-c2ccc(F)cc2)nn2cc(C(=O)N3CCN(c4nn[nH]n4)C(=O)C3(C)C)nc12` [Compound I-235], the IC50 is over 1000 nM in experiment [1], 1.1 nM in experiment [2], 0.7 nM in experiment [3] and 930 nM in experiment [4].
In the same order, the values of `CC(C)c1cc(-c2ccc(F)cc2)nn2cc(C(=O)N3CCN(C(=O)c4ccncn4)CC3(C)C)nc12` [Compound I-236] are over 1000 nM, 18.6 nM, 8.2 nM and over 1000 nM.
With `CC(C)c1cc(-c2ccc(F)cc2)nn2cc(C(=O)N3CCN(C(=O)c4nc[nH]n4)CC3(C)C)nc12` [Compound I-237], the half-maximal inhibitory concentration (IC50) is over 1000 nM in experiment [1], 14.1 nM in experiment [2], 5.8 nM in experiment [3] and over 1000 nM in experiment [4].
On to `CC(C)c1cc(-c2ccc(F)cc2)nn2cc(C(=O)N3CCN(C(=O)c4ncc[nH]4)CC3(C)C)nc12` [Compound I-238], for which the IC50 was over 1000 nM in experiment [1], 8.5 nM in experiment [2], 2.5 nM in experiment [3] and over 1000 nM in experiment [4].
Take `CC(C)c1cc(-c2ccc(F)cc2)nn2cc(C(=O)N3CCN(C(=O)c4ccn[nH]4)CC3(C)C)nc12` [Compound I-239]: the IC50 in experiment [1] is over 1000 nM; in experiment [2], 6.4 nM; in experiment [3], 3.2 nM; in experiment [4] it was over 1000 nM.
On to `CC(C)c1cc(-c2ccc(F)cc2)nn2cc(C(=O)N3CCN(C(=O)C4CC(O)(C(F)(F)F)C4)CC3(C)C)nc12` (stereo not shown) [Compound I-240], for which the IC50 in experiment [1] was over 1000 nM; in experiment [2] it was 0.3 nM; in experiment [3], 0.1 nM; in experiment [4], over 1000 nM.
As for `Cc1ccc(-c2cc(C(C)C)c3nc(C(=O)N4CCNC(=O)C4(C)C)cn3n2)cc1` [Compound I-242], the half-inhibitory concentration (IC50) in experiment [1] was over 1000 nM; in experiment [2], 7.7 nM; in experiment [3] it was 5 nM; in experiment [4] it was over 1000 nM.
For `CC(C)c1cc(-c2ccc(F)c(F)c2)nn2cc(C(=O)N3CCNC(=O)C3(C)C)nc12` [Compound I-243], the IC50 in experiment [1] is over 1000 nM; in experiment [2], 8.5 nM; in experiment [3], 4.1 nM; in experiment [4], over 1000 nM.
For `CC(C)c1cc(-c2ccc(C(F)(F)F)cc2)nn2cc(C(=O)N3CCN(C(=O)[C@H]4C[C@](O)(C(F)(F)F)C4)CC3(C)C)nc12` [Compound I-245], the IC50 in experiment [1] was over 1000 nM; in experiment [2], 0.6 nM; in experiment [3], 0.3 nM; in experiment [4], over 1000 nM.
Take `CC(C)c1cc(-c2ccc(C(F)(F)F)cc2)nn2cc(C(=O)N3CCN(C(=O)c4ccn[nH]4)CC3(C)C)nc12` [Compound I-246]: the half-maximal inhibitory concentration (IC50) is over 1000 nM in experiment [1], 2 nM in experiment [2], 1.7 nM in experiment [3] and over 1000 nM in experiment [4].
For the molecule `CC(C)c1cc(-c2ccc(C(F)(F)F)cc2)nn2cc(C(=O)N3CCN(C(=O)c4ccncn4)CC3(C)C)nc12` [Compound I-247], the half-maximal inhibitory concentration (IC50) in experiment [1] is over 1000 nM; in experiment [2], 7.1 nM; in experiment [3], 4.3 nM; in experiment [4] it was over 1000 nM.
Take `Cn1nnnc1N1CCN(C(=O)c2cn3nc(-c4ccc(F)cc4)cc(C(C)(C)C)c3n2)C(C)(C)C1=O` [Compound I-248]: the IC50 in experiment [1] is over 1000 nM; in experiment [2] it was 58.5 nM; in experiment [3], 56.6 nM; in experiment [4], over 1000 nM.
`CC(C)c1cc(-c2cccc(F)c2)nn2cc(C(=O)N3CCN(C(=O)C(C)(C)O)CC3(C)C)nc12` [Compound I-250]: the half-maximal inhibitory concentration (IC50) in experiment [1] is over 1000 nM; in experiment [2], 128 nM; in experiment [3], 57 nM; in experiment [4] it was over 1000 nM.
`Cc1ccc(-c2cc(C(C)C)c3nc(C(=O)N4CCN(C(=O)C(C)(C)O)CC4(C)C)cn3n2)cc1F` [Compound I-251]: the concentration for half-maximal inhibition (IC50) in experiment [1] is over 1000 nM; in experiment [2], 16.6 nM; in experiment [3] it was 5.8 nM; in experiment [4] it was over 1000 nM.
As for `CC(C)c1cc(-c2ccccc2)nn2cc(C(=O)N3CCN(C(=O)C(C)(C)O)CC3(C)C)nc12` [Compound I-253], the half-inhibitory concentration (IC50) is over 1000 nM in experiment [1], 185 nM in experiment [2], 92 nM in experiment [3] and over 1000 nM in experiment [4].
Take `Cc1ccc(-c2cc(C(C)C)c3nc(C(=O)N4CCN(C(=O)[C@H]5C[C@](O)(C(F)(F)F)C5)CC4(C)C)cn3n2)cc1` [Compound I-254]: the IC50 in experiment [1] was over 1000 nM; in experiment [2] it was 0.3 nM; in experiment [3], 0.2 nM; in experiment [4] it was over 1000 nM.
For `Cc1ccc(-c2cc(C(C)C)c3nc(C(=O)N4CCN(C(=O)c5ccn[nH]5)CC4(C)C)cn3n2)cc1` [Compound I-255], the IC50 in experiment [1] was over 1000 nM; in experiment [2], 3.8 nM; in experiment [3] it was 3.6 nM; in experiment [4], over 1000 nM.
In the case of `Cc1ccc(-c2cc(C(C)C)c3nc(C(=O)N4CCN(C(=O)c5ccncn5)CC4(C)C)cn3n2)cc1` [Compound I-256], the 50% inhibitory concentration (IC50) in experiment [1] is over 1000 nM; in experiment [2], 12.3 nM; in experiment [3], 6.1 nM; in experiment [4], over 1000 nM.
